Here are results for 1 molecule from US20250280826A1, “PLANT GROWTH PROMOTER” (KAO CORPORATION, priority 2022, published 2025).

Type in all cases: in vivo
One experiment has as its system chickpea. The experiment can be described thus: Example 7: initial growth index in chickpea (above-ground part dry weight). Conditions: ascorbic acid 1 500 mass ppm, tap water vs deionized water. How it is done: Medium-term fertilizer effect type culture soil (Takii hydrous cell medium-term fertilizer effect type, Takii & Co., Ltd.) and vermiculite grains (Akagi-Engei Co., Ltd.) were mixed at a volume ratio of 1:1, and the soil was placed in a polypot (diameter: 10.5 cm, height: 9 cm). The chickpea used was seeds of Kabuli species (purchased from Nikko Seed Co. Ltd.). After tap water was supplied in an amount of 250 mL per pot, 2 seeds per pot were each sown at a depth of from about 1 to 2 cm from the soil surface. The number of repeats in each test plot was 6 (n=6). […]
The cultivation conditions and the foliar spray treatment method were the same as those in Example 6 (example of azuki bean). The evaluated test plots 1 to 4 are as follows.
On day 28 after sowing, the plant body was dried at 90° C. for 24 hours, and the above-ground part dry weight of the plant body was then measured. • 1 plot: control (no application) • 2 plot: foliar spray of 1 500 mass ppm ascorbic acid (dissolved in tap water) • 3 plot: foliar spray of 1 500 mass ppm ascorbic acid (dissolved in deionized water) • 4 plot: foliar spray of 1 500 mass ppm ascorbic acid+1 mass ppm BHT+50 mass ppm isobutyl alcohol+350 mass ppm sorbitan monolaurate (dissolved in tap water) […]

Another experiment relates to Lotus japonicus. The experiment is described as follows: Example 8: number of pods and seed weight in Lotus japonicus. The note with it: ascorbic acid 1,500 ppm, tap water vs deionized water. How it is done:
Medium-term fertilizer effect type culture soil (Takii hydrous cell medium-term fertilizer effect type, Takii & Co., Ltd.) and vermiculite grains (Akagi-Engei Co., Ltd.) were mixed at a volume ratio of 1:1, and the soil was placed in a polypot (diameter: 6 cm, height: 5.5 cm).
The Lotus japonicus seeds used were Miyakojima MG-20 lineage. To a 2 mL microtube (Eppendorf) filled approximately ⅓ with the seeds, 1 mL of concentrated sulfuric acid (FUJIFILM Wako Pure Chemical Corporation) was added and allowed to stand for 10 minutes. After rinsing five times with tap water, the seeds were soaked for two hours. After tap water was supplied in an amount of 100 mL per pot, 3 seeds, which had undergone germination treatment, per pot were each sown at a depth of from about 1 to 2 cm from the soil surface. The number of repeats in each test plot was 8 (n=8). […]
For the preparation of the spraying solutions, BHT of the component (B) was previously dissolved in the component (C), and the components (C) and (D) were then mixed to prepare a second agent. […] The number of pods and seed weight of each plant were measured.

The test system of the next experiment is soybean. The experiment can be described thus: Example 3: soybean nodule activity, mixing ratio of ascorbic acid and antioxidant. Conditions: ascorbic acid dissolved in tap water, in comparison to no application. How it is done: The items of the preparation of soil and sowing, the inoculation of Rhizobium, the exudate collection method for measuring the amount of ureide nitrogen, which serves as an indicator of nodule activity, the experimental operation before quantification of exudate, the equipment and measurement method used for quantification of the amount of ureide nitrogen, and the standard products used and quantification were the same as those in Example 2, and the cultivation of soybean was carried out for 21 days.
The cultivation was carried out in an artificial weather apparatus (LPH-411SP, Nippon Medical & Chemical Instruments Co., Ltd.), with the light condition of a light period (light intensity from […]) of 16 hours/a dark period of 8 hours, the temperature of 30° C. for the light period/25° C. for the dark period, and a humidity of 50%. On day 7 after sowing, the plants were thinned so as to be one plant per pot. Watering was carried out by adding water to a vat placed under the pot so that about 5 cm of the lower part of the pot would be submerged after the vat had run out of water.
The spraying solutions shown in Table 4 below were prepared in the same manner as in Example 2, and 6.7 mL of each was sprayed per plant using a mister an day 14 after sowing. Foliar spray was carried out only once, and 7 types of test plots were examined (Table 4). […]

In the case of `O=C1O[C@H]([C@@H](O)CO)C(O)=C1O` [ascorbic acid, (R)-3,4-dihydroxy-5-((S)-1,2-dihydroxyethyl)furan-2(5H)-one], the “effects on the initial growth index” value with chickpea was “varied in accordance with the water quality”. Besides, the “effects on the seed weight” value in the experiment on Lotus japonicus was “varied in accordance with the water quality”. Also, the “nodule activity (allantoin and allantoic acid in exudate)” value with soybean is reported as “did not change or rather decreased”.
